Source: PubChem BioAssay AID1919017 (Molecular Pharmacology Branch, DTP, NCI, 2023)

Tested on: SW1271 complex spheroids with HUVEC/MSC, growth, % test/control
Assay: Anticancer human tumor SW1271 cell line growth inhibition [AhR];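 further: spheroids exposed to agents for 7 days before readout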
Details: for IC50: curve of first compound; for viability, T/C: stronger effect = lower value
In short: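 Agents were dosed in half-log steps down from roughly clinical Cmax, or from 10 microM where Cmax was unknown, alone and with AhR antagonists. Read-out: percent test/control growth of tumor spheroids containing HUVEC and MSC stromal cells.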

[1] = second compound 0.1 µM, first compound 0.000949 µM
[2] = second compound 0.1 µM, first compound 0.003 µM
[3] = second compound 0.1 µM, first compound 0.00949 µM
[4] = second compound 0.1 µM, first compound 0.03 µM
[5] = second compound 0.1 µM, first compound 0.0949 µM
[6] = second compound 0.1 µM, first compound 0.3 µM
[7] = second compound 0.316 µM, first compound 0.000949 µM
[8] = second compound 0.316 µM, first compound 0.003 µM
[9] = second compound 0.316 µM, first compound 0.00949 µM
[10] = second compound 0.316 µM, first compound 0.03 µM
[11] = second compound 0.316 µM, first compound 0.0949 µM
[12] = second compound 0.316 µM, first compound 0.3 µM
[13] = second compound 1 µM, first compound 0.000949 µM
[14] = second compound 1 µM, first compound 0.003 µM
[15] = second compound 1 µM, first compound 0.00949 µM
[16] = second compound 1 µM, first compound 0.03 µM
[17] = second compound 1 µM, first compound 0.0949 µM
[18] = second compound 1 µM, first compound 0.3 µM
[19] = second compound 3.16 µM, first compound 0.000949 µM
[20] = second compound 3.16 µM, first compound 0.003 µM
[21] = second compound 3.16 µM, first compound 0.00949 µM
[22] = second compound 3.16 µM, first compound 0.03 µM
[23] = second compound 3.16 µM, first compound 0.0949 µM
[24] = second compound 3.16 µM, first compound 0.3 µM
[25] = second compound 10 µM, first compound 0.000949 µM
[26] = second compound 10 µM, first compound 0.003 µM
[27] = second compound 10 µM, first compound 0.00949 µM
[28] = second compound 10 µM, first compound 0.03 µM
[29] = second compound 10 µM, first compound 0.0949 µM
[30] = second compound 10 µM, first compound 0.3 µM

With `CC(C)CC(NC(=O)C(Cc1ccccc1)NC(=O)c1cnccn1)B(O)O` (stereo not given) + Cc1cncc(-c2nc(NCCc3c[nH]c4ccccc34)c3ncn(C(C)C)c3n2)c1 the IC50 (second compound 0.1 µM) was 6.11 nM, the IC50 (second compound 0.316 µM) was 5.7 nM and the IC50 (second compound 1 µM) was 6.18 nM. The IC50 (second compound 3.16 µM) was 5.61 nM, the IC50 (second compound 10 µM) was 3.96 nM and the viability, T/C [1] was 122%. For the same compound, the viability, T/C [2] was 112%, the viability, T/C [3] was 11.9% and the viability, T/C [4] was 0.91%. The viability, T/C [5] was 0.33%, the viability, T/C [6] was 0.46% and the viability, T/C [7] was 84.3%. For the same compound, the viability, T/C [8] was 113%, the viability, T/C [9] was 11.3% and the viability, T/C [10] was 0.73%. The viability, T/C [11] was 0.67%, the viability, T/C [12] was 0.41% and the viability, T/C [13] was 113%. It also gave a viability, T/C [14] of 112%, a viability, T/C [15] of 13.4% and a viability, T/C [16] of 1.13%. It also gave a viability, T/C [17] of 0.75%, a viability, T/C [18] of 0.48% and a viability, T/C [19] of 107%. The viability, T/C [20] was 102%, the viability, T/C [21] was 5.96% and the viability, T/C [22] was 0.63%. For the same compound, the viability, T/C [23] was 0.88%, the viability, T/C [24] was 0.55% and the viability, T/C [25] was 62.2%. For the same compound, the viability, T/C [26] was 69.2%, the viability, T/C [27] was 0.81% and the viability, T/C [28] was 0.31%. It also gave a viability, T/C [29] of 0.34% and a viability, T/C [30] of 0.3%.

For `CCc1c2c(nc3ccc(O)cc13)-c1cc3c(c(=O)n1C2)COC(=O)[C@]3(O)CC` + Cc1cncc(-c2nc(NCCc3c[nH]c4ccccc34)c3ncn(C(C)C)c3n2)c1, the IC50 (second compound 0.1 µM) was greater than 300 nM, the IC50 (second compound 0.316 µM) was greater than 300 nM and the IC50 (second compound 1 µM) was 255 nM. The IC50 (second compound 3.16 µM) was 162 nM, the IC50 (second compound 10 µM) was 1.82 nM and the viability, T/C [1] was 86.5%. For the same compound, the viability, T/C [2] was 92.8%, the viability, T/C [3] was 76.6% and the viability, T/C [4] was 57.4%. It also gave a viability, T/C [5] of 59.5%, a viability, T/C [6] of 57.8% and a viability, T/C [7] of 69.5%. The viability, T/C [8] was 79.8%, the viability, T/C [9] was 83% and the viability, T/C [10] was 58.1%. It also gave a viability, T/C [11] of 52.2%, a viability, T/C [12] of 48.9% and a viability, T/C [13] of 116%. The viability, T/C [14] was 104%, the viability, T/C [15] was 71% and the viability, T/C [16] was 74.2%. For the same compound, the viability, T/C [17] was 64.1%, the viability, T/C [18] was 50.3% and the viability, T/C [19] was 92%. It also gave a viability, T/C [20] of 90.2%, a viability, T/C [21] of 75.2% and a viability, T/C [22] of 63.6%. The viability, T/C [23] was 60.8%, the viability, T/C [24] was 41.5% and the viability, T/C [25] was 55.5%. It also gave a viability, T/C [26] of 45%, a viability, T/C [27] of 37.2% and a viability, T/C [28] of 27.9%. For the same compound, the viability, T/C [29] was 24% and the viability, T/C [30] was 25.9%.

`COc1cc(Nc2ncc3c(n2)-c2ccc(Cl)cc2C(c2c(F)cccc2OC)=NC3)ccc1C(=O)O` + Cc1cncc(-c2nc(NCCc3c[nH]c4ccccc34)c3ncn(C(C)C)c3n2)c1 gave an IC50 (second compound 0.1 µM) greater than 10000 nM, an IC50 (second compound 0.316 µM) greater than 10000 nM and an IC50 (second compound 1 µM) greater than 10000 nM. It also gave an IC50 (second compound 3.16 µM) greater than 10000 nM, an IC50 (second compound 10 µM) of less than 31.6 nM and a viability, T/C (second compound 0.1 µM, first compound 0.0316 µM) of 92.7%. For the same compound, the viability, T/C (second compound 0.1 µM, first compound 0.1 µM) was 91.6%, the viability, T/C (second compound 0.1 µM, first compound 0.316 µM) was 98.6% and the viability, T/C (second compound 0.1 µM, first compound 1 µM) was 93.9%. It also gave a viability, T/C (second compound 0.1 µM, first compound 3.16 µM) of 78.3%, a viability, T/C (second compound 0.1 µM, first compound 10 µM) of 67.7% and a viability, T/C (second compound 0.316 µM, first compound 0.0316 µM) of 91%. For the same compound, the viability, T/C (second compound 0.316 µM, first compound 0.1 µM) was 87.8%, the viability, T/C (second compound 0.316 µM, first compound 0.316 µM) was 92% and the viability, T/C (second compound 0.316 µM, first compound 1 µM) was 91%. The viability, T/C (second compound 0.316 µM, first compound 3.16 µM) was 98.4%, the viability, T/C (second compound 0.316 µM, first compound 10 µM) was 57.5% and the viability, T/C (second compound 1 µM, first compound 0.0316 µM) was 81.5%. The viability, T/C (second compound 1 µM, first compound 0.1 µM) was 87.2%, the viability, T/C (second compound 1 µM, first compound 0.316 µM) was 88.2% and the viability, T/C (second compound 1 µM, first compound 1 µM) was 88.6%. The viability, T/C (second compound 1 µM, first compound 3.16 µM) was 81.3%, the viability, T/C (second compound 1 µM, first compound 10 µM) was 56.2% and the viability, T/C (second compound 3.16 µM, first compound 0.0316 µM) was 95.1%. For the same compound, the viability, T/C (second compound 3.16 µM, first compound 0.1 µM) was 87.5%, the viability, T/C (second compound 3.16 µM, first compound 0.316 µM) was 91.9% and the viability, T/C (second compound 3.16 µM, first compound 1 µM) was 102%. The viability, T/C (second compound 3.16 µM, first compound 3.16 µM) was 78.9%, the viability, T/C (second compound 3.16 µM, first compound 10 µM) was 67.9% and the viability, T/C (second compound 10 µM, first compound 0.0316 µM) was 36.1%. The viability, T/C (second compound 10 µM, first compound 0.1 µM) was 50.7%, the viability, T/C (second compound 10 µM, first compound 0.316 µM) was 49.5% and the viability, T/C (second compound 10 µM, first compound 1 µM) was 50.1%. For the same compound, the viability, T/C (second compound 10 µM, first compound 3.16 µM) was 42.5% and the viability, T/C (second compound 10 µM, first compound 10 µM) was 40.4%.
